Values quoted from earlier work, collected in patent publication US20030198684A1 (priority 2002, published 2003).
Where two headings read alike, the source gives them in different places.

Assays:
[1] = test system: prostate and seminal vesicle weights
[2] = for waking erection: Asian hypogonadal men; for sexual interest and activity, spontaneous erection: Caucasian hypogonadal men
young female rats = settings: constant infusion
[3] = 300 mg/wk for six weeks; TE: shoulders; ND: shoulders and chest
[4] = HIV-infected men, pharmacological doses
[5] = supplementation
[6] = in vivo
[7] = supplementation; remark: listed apart in the source
aromatase = target: T1, aromatase (Homo sapiens, UniProt P11511); settings: compared with chrysin, AG and ANG
T1 sequence (P11511 1-503): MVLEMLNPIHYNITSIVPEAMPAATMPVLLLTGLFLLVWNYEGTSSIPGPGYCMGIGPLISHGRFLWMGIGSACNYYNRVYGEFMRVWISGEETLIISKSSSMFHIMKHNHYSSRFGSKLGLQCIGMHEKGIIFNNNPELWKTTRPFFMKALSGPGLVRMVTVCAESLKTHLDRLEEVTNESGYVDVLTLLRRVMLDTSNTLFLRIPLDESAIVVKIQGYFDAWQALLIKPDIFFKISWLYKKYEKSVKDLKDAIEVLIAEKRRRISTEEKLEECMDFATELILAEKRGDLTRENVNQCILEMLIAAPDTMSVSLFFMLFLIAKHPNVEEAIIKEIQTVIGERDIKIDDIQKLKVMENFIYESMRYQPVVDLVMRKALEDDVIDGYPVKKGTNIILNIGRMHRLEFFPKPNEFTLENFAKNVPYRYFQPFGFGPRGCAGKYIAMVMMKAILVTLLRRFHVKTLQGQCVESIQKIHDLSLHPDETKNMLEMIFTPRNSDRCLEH

[8] = body builders
[9] = in vivo; remark: listed apart in the source
[10] = patients on dialysis, compared with placebo

Compound: C[C@@H]1CC2=CC(=O)CC[C@@H]2[C@H]2CC[C@]3(C)[C@@H](O)CC[C@H]3[C@@H]21 [MENT, 7α-methyl-19-nor-testosterone]
- androgenic potency relative to testosterone [1]: four- to five-times more androgenic than testosterone
- anabolic potency relative to testosterone (levator ani muscles): ten-times as potent as testosterone
- waking erection [2]: increased waking erection
- sexual interest and activity, spontaneous erection [2]: significant increases

Compound: C[C@]12CC[C@H](O)CC1=CC[C@@H]1[C@@H]2CC[C@]2(C)C(=O)CC[C@@H]12 [DHEA, dehydro-epiandrosterone]
- plasma testosterone (50 mg dose of DHEA): restored plasma testosterone to levels similar to those observed in young women
- delta 5-androstenediol (50 mg or 200 mg DHEA): small increase
- plasma delta 4-androstenedione increase (50 mg or 200 mg DHEA): significant and dose dependent
- plasma estrogens, particularly estradiol (50 mg or 200 mg DHEA): significant and dose dependent increase
- plasma testosterone (200 mg dose of DHEA): important increase of plasma testosterone, slightly below the levels observed in normal men
- increase of plasma dihydrotestosterone levels (both doses of DHEA): small at both doses

Compound: C[C@]12CC[C@H]3[C@@H](CCC4=CC(=O)CC[C@@]43C)[C@@H]1CC[C@@H]2O [testosterone]
- lipid deposition or heat production (young female rats): did not have a significant effect
- proportion of protein in the body composition (young female rats): increased

Compound: CCCCCCCCCC(=O)O[C@H]1CC[C@H]2[C@@H]3CCC4=CC(=O)CC[C@@H]4[C@H]3CC[C@]12C [nandrolone decanoate, 19-nor-testosterone decanoate]
- body circumferences (of fifteen) [3]: significant increases
- total weight, lean body mass, body cell mass, muscle size, and strength [4]: significant gains

Compound: C[C@]12CC[C@H]3[C@@H](CCC4=C[C@@H](O)CC[C@@]43C)[C@@H]1CC[C@@H]2O [4-androstenediol]
- urine testosterone concentration relative to 4androstenedione [5]: 10 fold
- human serum testosterone levels [6]: produce elevations in human serum testosterone levels

Compound: C[C@]12CCC(=O)C=C1CC[C@@H]1[C@@H]2CC[C@]2(C)C(=O)CC[C@@H]12 [4-androstenedione]
- serum testosterone [7]: produced elevations in serum testosterone

Compound: CCCCCCC(=O)O[C@H]1CC[C@H]2[C@@H]3CCC4=CC(=O)CC[C@]4(C)[C@H]3CC[C@]12C [TE, testosterone enanthate]
- waking erection [2]: increased waking erection
- sexual interest and activity, spontaneous erection [2]: significant increases
- body circumferences (of fifteen) [3]: significant increases

Compound: COc1ccc(-c2coc3cc(O)cc(O)c3c2=O)cc1 [Biochanin A, 5,7-dihydroxy-4′-methoxyisoflavone]
- aromatase inhibition (in words) (aromatase): inhibited aromatase, but to a lesser degree

Compound: C[C@]12CC[C@H]3[C@@H](CCC4=CC(=O)CC[C@@H]43)[C@@H]1CC[C@@H]2O [nandrolone, 19-nor-testosterone]
- decrease in HDL-choresterol and diastolic blood pressure [8]: 25-27%
- energy expenditure (young female rats): increased energy expenditure
- azoospermia [9]: azoospermia (lack of sperm) associated with nandrolone use
- lean body mass [10]: increased significantly

Compound: C[C@]12CC[C@H]3[C@@H](CC=C4C[C@@H](O)CC[C@@]43C)[C@@H]1CC[C@@H]2O [5-androstenediol]
- lipid deposition or heat production (young female rats): did not have a significant effect
- proportion of protein in the body composition (young female rats): increased
